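Step 1: Grow cells in 96-well plates. Step 2: Expose to compound for 48 hours at 5 concentrations. Step 3: Interpolate endpoints linearly; if unreached, use highest concentration. GI50 = concentration required for 50% inhibition of growth. TGI: total growth inhibition.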
How the values were obtained:
Experiment in all cases: NCI tumour cell line growth inhibition, 48 h; in the data active = GI50 below about 0.43 µM; inactive = the rest
[1] = test system: 786-0 renal
[2] = test system: A498 renal
[3] = test system: A549 NSCLC
[4] = test system: ACHN renal
[5] = test system: BT-549 breast
[6] = test system: CAKI-1 renal
[7] = test system: CCRF-CEM leukemia
[8] = test system: COLO 205 colon
[9] = test system: DU-145 prostate
[10] = test system: EKVX NSCLC
[11] = test system: HCC-2998 colon
[12] = test system: HCT-116 colon
[13] = test system: HCT-15 colon
[14] = test system: HL-60(TB) leukemia
[15] = test system: HOP-62 NSCLC
[16] = test system: HOP-92 NSCLC
[17] = test system: HS 578T breast
[18] = test system: HT29 colon
[19] = test system: IGROV1 ovarian
[20] = test system: K-562 leukemia
[21] = test system: KM12 colon
[22] = test system: LOX IMVI melanoma
[23] = test system: M14 melanoma
[24] = test system: MALME-3M melanoma
[25] = test system: MCF7 breast
[26] = test system: MDA-MB-231 breast
[27] = test system: MDA-MB-435
[28] = test system: MDA-MB-468 breast
[29] = test system: MOLT-4 leukemia
[30] = test system: NCI-H226 lung
[31] = test system: NCI-H23 lung
[32] = test system: NCI-H460 lung
[33] = test system: NCI-H522 lung
[34] = test system: NCI/ADR-RES ovarian
[35] = test system: OVCAR-3 ovarian
[36] = test system: OVCAR-4 ovarian
[37] = test system: OVCAR-5 ovarian
[38] = test system: OVCAR-8 ovarian
[39] = test system: PC-3 prostate
[40] = test system: RPMI-8226 leukemia
[41] = test system: SF-268 CNS
[42] = test system: SF-295 CNS
[43] = test system: SF-539 CNS
[44] = test system: SK-MEL-2 melanoma
[45] = test system: SK-MEL-28 melanoma
[46] = test system: SK-MEL-5 melanoma
[47] = test system: SK-OV-3 ovarian
[48] = test system: SN12C renal
[49] = test system: SNB-19 CNS
[50] = test system: SNB-75 CNS
[51] = test system: SR leukemia
[52] = test system: SW-620 colon
[53] = test system: T-47D breast
[54] = test system: TK-10 renal
[55] = test system: U251 CNS
[56] = test system: UACC-257 melanoma
[57] = test system: UACC-62 melanoma
[58] = test system: UO-31 renal

COC(=O)c1ccc(-n2cc(CCCN(CCNc3ccnc4cc(Cl)ccc34)C(=O)CCC(=O)O[C@@H]3O[C@@H]4OC5(C)CC[C@H]6[C@H](C)CC[C@@H]([C@H]3C)[C@@]46OO5)nn2)cc1
1600 nM: TGI [14]
7230 nM: TGI [20]
2820 nM: TGI [16]
2750 nM: TGI [24]
2130 nM: TGI [13]
3630 nM: TGI [27]
> 10800 nM: TGI [1] | TGI [2] | TGI [3] | TGI [4] | TGI [5] | TGI [6] | TGI [7] | TGI [8] | TGI [9] | TGI [10] | TGI [11] | TGI [12] | TGI [15] | TGI [17] | TGI [18] | TGI [19] | TGI [21] | TGI [23] | TGI [26] | TGI [30] | TGI [31] | TGI [32] | TGI [33] | TGI [34] | TGI [35] | TGI [36] | TGI [37] | TGI [39] | TGI [40] | TGI [41] | TGI [42] | TGI [43] | TGI [44] | TGI [45] | TGI [47] | TGI [48] | TGI [49] | TGI [50] | TGI [52] | TGI [53] | TGI [54] | TGI [55] | TGI [56] | TGI [57] | TGI [58]
10300 nM: TGI [28]
inactive: GI50 [1] 3740 nM | GI50 [2] > 10800 nM | GI50 [3] 1790 nM | GI50 [4] 1870 nM | GI50 [5] 541 nM | GI50 [6] 6830 nM | GI50 [7] 506 nM | GI50 [9] > 10800 nM | GI50 [10] 827 nM | GI50 [11] 2000 nM | GI50 [15] > 10800 nM | GI50 [17] 751 nM | GI50 [18] 519 nM | GI50 [19] 1880 nM | GI50 [22] 429 nM | GI50 [23] 2650 nM | GI50 [24] 1250 nM | GI50 [25] 444 nM | GI50 [26] 6840 nM | GI50 [27] 508 nM | GI50 [28] 619 nM | GI50 [30] 1110 nM | GI50 [31] 633 nM | GI50 [32] 6150 nM | GI50 [33] 442 nM | GI50 [34] 1760 nM | GI50 [36] 546 nM | GI50 [37] 796 nM | GI50 [38] 550 nM | GI50 [41] 2580 nM | GI50 [42] 3240 nM | GI50 [43] 3150 nM | GI50 [44] 2400 nM | GI50 [45] 1330 nM | GI50 [46] 755 nM | GI50 [47] > 10800 nM | GI50 [48] 1680 nM | GI50 [49] > 10800 nM | GI50 [50] 1010 nM | GI50 [54] > 10800 nM | GI50 [55] 805 nM | GI50 [56] 890 nM | GI50 [57] 720 nM | GI50 [58] 1030 nM
2410 nM: TGI [46]
3850 nM: TGI [38]
active: GI50 [8] 355 nM | GI50 [12] 155 nM | GI50 [13] 246 nM | GI50 [14] 334 nM | GI50 [16] 280 nM | GI50 [20] 247 nM | GI50 [21] 319 nM | GI50 [29] 216 nM | GI50 [35] 397 nM | GI50 [39] 91.7 nM | GI50 [40] 189 nM | GI50 [51] 314 nM | GI50 [52] 375 nM | GI50 [53] 254 nM
4090 nM: TGI [51]
2320 nM: TGI [25]
4450 nM: TGI [29]
6000 nM: TGI [22]
